# From patent US20230331674A1 (priority 2020, published 2023)
# Assays:
# [1] = system: cryopreserved human hepatocytes; assay: Metabolite identification in cryopreserved hepatocytes; type: in vitro ADME; settings: 120 min, HPLC-MS
# Protocol: Principal Phase I (oxidative) and Phase II (conjugative) metabolites have been detected and characterized following previously described procedure (Obach R. S. et al. J. Pharmacol. Exp. Ther. 1997, 283, 46-58). Briefly, the test compound 2 ([…]) was incubated at 37° C. in cryopreserved human hepatocytes (0.7 million cells/mL) for 120 min. Samples were taken at time 0 and the end of the incubation (2 h), respectively. A control sample (no test compound added) was also prepared and incubated for the same period of time. After the reaction was stopped by addition of acetonitrile, the supernatants were subjected to HPLC-MS analysis. Separation of analytes was achieved using Acquity HSS T3 column (100×2.1 mm, 1.8 μm, Waters). The sample solutions-supernatants (5 μL) were injected and eluted at a flow rate of 0.5 mL min-1, using a linear gradient of mobile phase A (0.1% formic acid in water) and mobile phase B (0.1% formic acid in MeCN). The gradient for mobile phase B was: 0-1.0 min, 5%; 1.0-7.0 min, 5%-80%; 7.0-7.5 min, 80%; 7.5-8.0 min, 80%-5%; 8.0-10.0 min, 5%. […] Retention times and the respective MS and MS/MS spectra of the species detected in the incubated sample and not in time-zero or blank sample were identified and recorded.
# SH-SY5Y cells = assay: Cell viability assay (MTS) in SH-SY5Y cells; settings: 48 h
# Protocol: Prior to cell treatments, complete medium was replaced with reduced-serum medium (i.e., with 2% fetal bovine serum). (±)-N-((1-benzylpiperidin-3-yl)methyl)-N-(2-methoxyethyl)naphthalene-2-sulfonamide hydrochloride was prepared as a stock solution of 10 mM in DMSO and was used at concentrations of 1 μM to 100 μM.
# SH—SY5Y cells were seeded in 96-well plates (2×10^4/well) and assessed in the MTS ([3-(4,5-dimethylthiazol-2-yl)-5-(3-carboxymethoxyphenyl)-2-(4-sulfophenyl)-2H-tetrazolium, inner salt) assay for their response to treatments with (±)-N-((1-benzylpiperidin-3-yl)methyl)-N-(2-methoxyethyl)naphthalene-2-sulfonamide hydrochloride. The cells were treated as described above, and cell viability was assessed after 48 h using the CellTiter 96 Aqueous One Solution Cell Proliferation Assay (Promega, Madison, WI, USA), according to the manufacturer instructions. Absorbance was measured with an automatic microplate reader (Tecan Safire2, Switzerland) at a wavelength of 492 nm. The data are presented as percentages of the control (DMSO).
structure (smiles),measurement,setting,value
COCCN(CC1CCCN(Cc2ccccc2)C1)S(=O)(=O)c1ccc2ccccc2c1 (racemic) [(±)-N-((1-benzylpiperidin-3-yl)methyl)-N-(2-methoxyethyl)naphthalene-2-sulfonamide],Possible metabolites,[1],"N-debenzylated, demethylated, and a demethylated+glucoronide products"
same,LD50,SH-SY5Y cells,31.40 µM
